Laboratory results reported in patent US10787447B2, “Pharmaceutical compounds” (Heptares Therapeutics Limited, priority 2018, dated 2020).

How the values were obtained:
Format in all cases: cell-based
[1] = target: T1, human muscarinic M2 receptor (Homo sapiens, UniProt P08172); test: Alphascreen Surefire phospho-ERK1/2 functional assay, M2; conditions: for % Emax cf. ACh, M2: CHO cells stably expressing human M2; for % Emax cf. ACh, M2 / Emax: Emax relative to ACh; for EC50: pEC50 M2, CHO cells stably expressing human M2, phospho-ERK1/2; for Emax: CHO, read-out: % Emax cf. ACh, M2, CHO cells stably expressing human M2
T1 sequence (P08172 1-466): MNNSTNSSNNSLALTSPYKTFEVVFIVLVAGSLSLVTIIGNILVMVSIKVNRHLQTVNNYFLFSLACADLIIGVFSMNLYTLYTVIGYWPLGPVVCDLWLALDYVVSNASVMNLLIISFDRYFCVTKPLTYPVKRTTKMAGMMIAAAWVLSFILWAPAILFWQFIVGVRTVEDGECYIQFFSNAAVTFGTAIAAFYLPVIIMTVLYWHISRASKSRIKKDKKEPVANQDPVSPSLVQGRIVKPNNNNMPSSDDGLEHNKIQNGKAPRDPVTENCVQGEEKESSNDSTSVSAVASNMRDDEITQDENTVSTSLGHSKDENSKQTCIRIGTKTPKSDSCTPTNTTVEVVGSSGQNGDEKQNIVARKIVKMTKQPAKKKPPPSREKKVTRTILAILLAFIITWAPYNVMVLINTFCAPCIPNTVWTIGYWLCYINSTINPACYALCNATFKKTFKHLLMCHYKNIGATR
How it was run: (§1)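 CHO cells stably expressing human M1, M2, M3 or M4 receptor, serum-starved overnight, then stimulated with agonist for 5 min at 37 °C. Cells lysed for 15 min and phospho-ERK1/2 detected in the lysate by AlphaScreen SureFire.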

[2] = target: T2, human muscarinic M4 receptor (Homo sapiens, UniProt P08173); test: Alphascreen Surefire phospho-ERK1/2 functional assay, M4; conditions: for % Emax cf. ACh, M4: CHO cells stably expressing human M4; for EC50: pEC50 M4, CHO cells stably expressing human M4, phospho-ERK1/2
T2 sequence (P08173 1-479): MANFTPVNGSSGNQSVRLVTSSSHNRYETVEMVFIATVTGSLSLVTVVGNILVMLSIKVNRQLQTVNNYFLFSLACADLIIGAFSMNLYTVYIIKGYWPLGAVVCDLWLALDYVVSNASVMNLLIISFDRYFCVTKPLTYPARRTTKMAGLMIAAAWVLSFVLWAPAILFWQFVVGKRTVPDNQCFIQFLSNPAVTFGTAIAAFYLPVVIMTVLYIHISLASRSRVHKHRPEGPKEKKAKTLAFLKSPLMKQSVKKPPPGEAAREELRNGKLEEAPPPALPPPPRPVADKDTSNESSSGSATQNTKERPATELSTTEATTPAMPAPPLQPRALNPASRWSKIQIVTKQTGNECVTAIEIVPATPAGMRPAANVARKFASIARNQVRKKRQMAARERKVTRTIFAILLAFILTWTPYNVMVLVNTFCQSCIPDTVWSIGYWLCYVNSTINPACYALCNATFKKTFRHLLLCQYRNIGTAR
How it was run: as §1

[3] = target: T3, human muscarinic M1 receptor (Homo sapiens, UniProt P11229); test: Alphascreen Surefire phospho-ERK1/2 functional assay, M1; conditions: for % Emax cf. ACh, M1: CHO cells stably expressing human M1; for % Emax cf. ACh, M1 / Emax: Emax relative to ACh; for EC50: pEC50 M1, CHO cells stably expressing human M1, phospho-ERK1/2; for Emax: CHO, read-out: % Emax cf. ACh, M1, CHO cells stably expressing human M1
T3 sequence (P11229 1-460): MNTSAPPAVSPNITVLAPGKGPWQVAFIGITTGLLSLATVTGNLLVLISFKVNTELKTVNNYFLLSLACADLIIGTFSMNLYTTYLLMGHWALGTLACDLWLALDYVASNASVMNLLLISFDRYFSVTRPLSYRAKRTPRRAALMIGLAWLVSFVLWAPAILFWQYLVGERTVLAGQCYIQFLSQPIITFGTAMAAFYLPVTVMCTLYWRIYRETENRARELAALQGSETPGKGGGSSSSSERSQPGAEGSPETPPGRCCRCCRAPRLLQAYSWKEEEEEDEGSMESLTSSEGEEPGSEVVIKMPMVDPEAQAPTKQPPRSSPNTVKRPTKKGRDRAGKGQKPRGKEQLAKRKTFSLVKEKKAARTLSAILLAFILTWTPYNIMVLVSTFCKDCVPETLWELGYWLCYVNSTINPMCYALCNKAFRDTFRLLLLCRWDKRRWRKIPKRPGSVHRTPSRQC
How it was run: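 Stably transfected CHO cells, serum-starved overnight, then exposed to agonist for 5 min at 37 °C. Cells lysed and phospho-ERK1/2 measured by AlphaScreen SureFire.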

[4] = target: T4, human muscarinic M3 receptor (Homo sapiens, UniProt P20309); test: Alphascreen Surefire phospho-ERK1/2 functional assay, M3; conditions: for % Emax cf. ACh, M3: CHO cells stably expressing human M3; for % Emax cf. ACh, M3 / Emax: Emax relative to ACh; for Emax: CHO, read-out: % Emax cf. ACh, M3, CHO cells stably expressing human M3; for EC50: pEC50 M3, CHO cells stably expressing human M3, phospho-ERK1/2
T4 construct: expressed in transfected cells
T4 sequence (P20309 whole entry): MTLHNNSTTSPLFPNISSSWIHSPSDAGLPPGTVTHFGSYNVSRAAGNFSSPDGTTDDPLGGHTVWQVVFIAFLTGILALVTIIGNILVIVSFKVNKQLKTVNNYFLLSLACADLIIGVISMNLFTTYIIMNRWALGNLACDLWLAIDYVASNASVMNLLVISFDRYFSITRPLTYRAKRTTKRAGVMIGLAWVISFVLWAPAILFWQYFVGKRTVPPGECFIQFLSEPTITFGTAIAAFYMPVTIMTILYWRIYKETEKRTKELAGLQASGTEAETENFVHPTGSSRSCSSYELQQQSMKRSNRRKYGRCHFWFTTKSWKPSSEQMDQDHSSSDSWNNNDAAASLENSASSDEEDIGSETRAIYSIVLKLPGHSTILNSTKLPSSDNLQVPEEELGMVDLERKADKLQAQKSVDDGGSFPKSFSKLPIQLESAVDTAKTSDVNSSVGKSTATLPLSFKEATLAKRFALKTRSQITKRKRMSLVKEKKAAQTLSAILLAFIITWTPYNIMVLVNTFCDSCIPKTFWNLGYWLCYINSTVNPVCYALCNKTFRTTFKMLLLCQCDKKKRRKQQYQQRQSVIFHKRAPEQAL
How it was run: as §1

Row | SMILES | EC50 [1] [nM] | EC50 [2] [nM] | EC50 [3] [nM] | Emax [4] [%] | EC50 [4] [nM] | Emax [1] [%] | Emax [3] [%] | further results
1 | CCOC(=O)N1C2COCC1CC(N1CCC(N3CCCCC3=O)CC1)C2 (single isomer, unassigned) [Example 6-6 Isomer 2, Ethyl 7-(2-oxo-1,4′-bipiperidin-1′-yl)-3-oxa-9-azabicyclo[3.3.1]nonane-9-carboxylate] | > 20000 | 81.3 | 977 | – | – | – | – | % Emax cf. ACh, M2 ([1]; listed as 6-6 Isomer 2): 6%; % Emax cf. ACh, M4 ([2]; Emax relative to ACh, listed as 6-6 Isomer 2): 48%; % Emax cf. ACh, M1 ([3]; listed as 6-6 Isomer 2): 50%; % Emax cf. ACh, M3 ([4]; listed as 6-6 Isomer 2): 3%
2 | CCOC(=O)N1C2COCC1CC(N1CCC(N(CC3(C)CCC3)C(C)=O)CC1)C2 (single isomer, unassigned) [Example 6-4 Isomer 2, Ethyl 7-(4-{acetyl[(1-methylcyclobutyl)methyl]amino}piperidin-1-yl)-3-oxa-9-azabicyclo[3.3.1]nonane-9-carboxylate] | > 20000 | 204 | 33.9 | 19 | > 20000 | – | – | % Emax cf. ACh, M2 ([1]; listed as 6-4 Isomer 2): 15%; % Emax cf. ACh, M4 ([2]; Emax relative to ACh, listed as 6-4 Isomer 2): 38%; % Emax cf. ACh, M1 ([3]; listed as 6-4 Isomer 2): 72%
3 | CCOC(=O)N1C2COCC1CC(N1CCC3(CC1)CC3)C2 (single isomer, unassigned) [Example 5-1 Isomer 1, Ethyl 7-(6-azaspiro[2.5]oct-6-yl)-3-oxa-9-azabicyclo[3.3.1]nonane-9-carboxylate] | > 20000 | > 20000 | 72.4 | – | > 20000 | 8 | 47 | % Emax cf. ACh, M4 ([2]; Emax relative to ACh, listed as 5-1 Isomer 1): 13%; % Emax cf. ACh, M3 ([4]; listed as 5-1 Isomer 1): 0%
4 | CCOC(=O)N1C2COCC1CC(N1CCC(N(CC3(C)CC3)C(C)=O)CC1)C2 (single isomer, unassigned) [Example 6-3 Isomer 1, Ethyl 7-(4-{acetyl[(1-methylcyclopropyl)methyl]amino}piperidin-1-yl)-3-oxa-9-azabicyclo[3.3.1]nonane-9-carboxylate] | 355 | 60.3 | 120 | – | > 20000 | – | – | % Emax cf. ACh, M2 ([1]; listed as 6-3 Isomer 1): 36%; % Emax cf. ACh, M4 ([2]; Emax relative to ACh, listed as 6-3 Isomer 1): 93%; % Emax cf. ACh, M1 ([3]; listed as 6-3 Isomer 1): 124%; % Emax cf. ACh, M3 ([4]; listed as 6-3 Isomer 1): 390%
5 | CCOC(=O)N1C2COCC1CC(N1CCC(c3cccnc3OC)CC1)C2 (single isomer, unassigned) [Example 2-2 Isomer 2, Ethyl 7-[4-(2-methoxypyridin-3-yl)piperidin-1-yl]-3-oxa-9-azabicyclo[3.3.1]nonane-9-carboxylate] | – | 112 | – | – | – | – | – | % Emax cf. ACh, M2 [1]: 3%; % Emax cf. ACh, M4 ([2]; Emax relative to ACh, listed as 2-2 Isomer 2): 37%; % Emax cf. ACh, M1 ([3]; listed as 2-2 Isomer 2): 10%; % Emax cf. ACh, M3 [4]: 5%
6 | CCOC(=O)N1C2COCC1CC(N1CCC3(CC1)CNC(=O)C3)C2 (single isomer, unassigned) [Example 5-2 Isomer 2, Ethyl 7-(3-oxo-2,8-diazaspiro[4.5]dec-8-yl)-3-oxa-9-azabicyclo[3.3.1]nonane-9-carboxylate] | > 20000 | > 20000 | 43.7 | 5 | > 20000 | 8 | – | % Emax cf. ACh, M4 ([2]; Emax relative to ACh): 18%; % Emax cf. ACh, M1 ([3]; listed as 5-2 Isomer 2): 61%
7 | CCOC(=O)N1C2COCC1CC(N1CCC(n3cccn3)CC1)C2 (single isomer, unassigned) [Example 1-1 Isomer 1, Ethyl 7-[4-(1H-pyrazol-1-yl)piperidin-1-yl]-3-oxa-9-azabicyclo[3.3.1]nonane-9-carboxylate] | 575 | 52.5 | 427 | 13 | > 20000 | 57 | 116 | Emax ([2]; CHO, read-out: % Emax cf. ACh, M4, CHO cells stably expressing human M4, Emax relative to ACh): 100%
8 | CCOC(=O)N1C2COCC1CC(N1CCC(N(Cc3ccccc3)C(C)=O)CC1)C2 (single isomer, unassigned) [Example 6-5 Isomer 1, Ethyl 7-{4-[acetyl(benzyl)amino]piperidin-1-yl}-3-oxa-9-azabicyclo[3.3.1]nonane-9-carboxylate] | > 20000 | 302 | 166 | – | > 20000 | – | 92 | % Emax cf. ACh, M2 ([1]; listed as 6-5 Isomer 1): 11%; % Emax cf. ACh, M4 ([2]; Emax relative to ACh, listed as 6-5 Isomer 1): 50%; % Emax cf. ACh, M3 ([4]; listed as 6-5 Isomer 1): 13%
9 | CCOC(=O)N1C2COCC1CC(N1CCC3(CC1)CC3)C2 (single isomer, unassigned) [Example 5-1 Isomer 2, Ethyl 7-(6-azaspiro[2.5]oct-6-yl)-3-oxa-9-azabicyclo[3.3.1]nonane-9-carboxylate] | – | 33.9 | 141 | – | – | – | – | % Emax cf. ACh, M2 [1]: 13%; % Emax cf. ACh, M4 ([2]; Emax relative to ACh, listed as 5-1 Isomer 2): 41%; % Emax cf. ACh, M1 [3]: 66%; % Emax cf. ACh, M3 ([4]; listed as 5-1 Isomer 2): 8%
